One compound from publication PMC10184130 can be followed below.

Type in all cases: biochemical
Assay [1] has as its target T1, mouse C1s (Mus musculus, UniProt Q8CG14).
T1 construct: Recombinant mouse C1s (22–694 aa) fused with both the N-terminal IgG signal peptide; IgG signal peptide (N); His tag (C); made in house; host or cells: Expi293 cells
T1 sequence (Q8CG14 438-688 limits assumed): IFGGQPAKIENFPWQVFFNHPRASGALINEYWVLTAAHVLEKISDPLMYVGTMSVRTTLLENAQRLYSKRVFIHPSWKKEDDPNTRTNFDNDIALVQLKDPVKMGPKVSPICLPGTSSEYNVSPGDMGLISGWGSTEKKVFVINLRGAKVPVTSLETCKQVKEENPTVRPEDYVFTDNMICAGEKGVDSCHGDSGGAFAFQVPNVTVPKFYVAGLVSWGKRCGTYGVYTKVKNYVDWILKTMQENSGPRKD
T1 sequence (Q8CG14 16-437 partner limits assumed): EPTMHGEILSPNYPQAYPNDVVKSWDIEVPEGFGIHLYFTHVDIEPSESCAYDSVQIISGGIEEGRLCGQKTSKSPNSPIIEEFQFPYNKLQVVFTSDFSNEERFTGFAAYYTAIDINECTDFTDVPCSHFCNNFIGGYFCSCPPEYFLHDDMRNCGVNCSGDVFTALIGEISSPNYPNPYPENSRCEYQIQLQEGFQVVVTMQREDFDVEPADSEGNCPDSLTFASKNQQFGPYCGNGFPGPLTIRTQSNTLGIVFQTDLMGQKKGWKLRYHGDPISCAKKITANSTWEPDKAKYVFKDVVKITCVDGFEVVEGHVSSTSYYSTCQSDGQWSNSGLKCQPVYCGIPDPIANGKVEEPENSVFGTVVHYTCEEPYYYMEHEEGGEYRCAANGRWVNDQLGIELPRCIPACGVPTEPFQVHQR
The assay can be described thus: Mouse C1s enzyme assay. The conditions noted are these: supplementary csv. The source says:
Recombinant mouse C1s (22–694 aa) fused with both the N-terminal IgG signal peptide and the C-terminal His tag was expressed in Expi293 cells and purified. Mouse C1s was activated by recombinant human C1r prior to use. Mouse C1s assay conditions were the same as for human C1s, except that the enzyme solution concentration was 30 nmol/L.

The target of assay [2] is T2, human C1r (Homo sapiens, UniProt P00736).
T2 construct: Recombinant human C1r (375–705 aa) fused with both the N-terminal IgG signal peptide; IgG signal peptide (N); His tag (C); made in house; host or cells: HEK293 cells
T2 sequence (P00736 375-705): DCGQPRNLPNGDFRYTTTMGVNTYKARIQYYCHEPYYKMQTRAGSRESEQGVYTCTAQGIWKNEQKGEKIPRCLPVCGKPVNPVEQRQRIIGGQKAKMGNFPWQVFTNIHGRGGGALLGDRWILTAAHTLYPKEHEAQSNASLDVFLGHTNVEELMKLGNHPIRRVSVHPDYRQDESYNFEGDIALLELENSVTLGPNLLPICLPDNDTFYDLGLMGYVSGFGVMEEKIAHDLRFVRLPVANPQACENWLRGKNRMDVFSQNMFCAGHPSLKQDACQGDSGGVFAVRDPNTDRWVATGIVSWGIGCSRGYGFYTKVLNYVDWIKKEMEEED
In words: Human C1r enzyme assay. Conditions: supplementary csv. The text has this:
Recombinant human C1r (375–705 aa) fused with both the N-terminal IgG signal peptide and the C-terminal His tag was expressed in HEK293 cells and purified. Human C1r assay conditions were the same as for human C1s, except that the enzyme solution concentration was 3 nmol/L and the substrate peptide was 250 μmol/L Z-Gly-Arg-SBzl (custom synthesis from Peptide Institute, Osaka, Japan) instead of Z-Lys-SBzl.

For assay [3], the target named is T3, human thrombin (Homo sapiens, UniProt P00734).
T3 construct: purchased AnaSpec
The assay can be described thus: Human thrombin enzyme assay. The conditions noted are these: supplementary csv. As to the method: The human thrombin enzyme activity was determined by a SensoLyte 520 thrombin activity assay kit (AnaSpec, CA, USA). Purified human thrombin and the substrate were diluted in the assay buffer 1. After 20 nL of compound solution was added to a 384-well black plate, 3 μL of the 2 μmol/L 5-FAM/QXLTM 520 thrombin substrate was added to the plate. Then, 8 nmol/L human thrombin was added to the plate and incubated at room temperature for 60 min. The fluorescence at an excitation wavelength of 485 nm and an emission wavelength of 535 nm was detected using an EnVision multilabel plate reader.

Assay [4] concerns the target T4, human plasmin (Homo sapiens, UniProt P00747).
T4 construct: purchased Zedira
In words: Human plasmin enzyme assay. The conditions noted are these: supplementary csv. The method, then: Recombinant human plasmin (Zedira, Hesse, Germany) and the substrate were diluted in an assay buffer [50 mmol/L Tris–HCl (pH 7.5), 150 mmol/L NaCl, and 0.01% (w/v) Tween 20]. Compounds were dissolved in DMSO and then diluted in an assay buffer. After 5 μL of compound solution was added to a 384-well black plate, 5 μL of substrate solution containing 75 μmol/L Boc-Val-Leu-Lys-MCA (Peptide Institute, Osaka, Japan) was added to the plate. Then, 11.25 nmol/L human plasmin was added to the plate and incubated at room temperature for 60 min. The fluorescence at an excitation wavelength of 380 nm and an emission wavelength of 460 nm was detected using an EnVision multilabel plate reader.

In assay [5] the test system is C5b-9 MAC formation induced by human serum. The assay can be described thus: C5b-9 MAC complex formation study (Wieslab classical pathway kit). Conditions: in vitro, dose-dependent. The method, then: The levels of the complement activation product C5b-9 MAC were determined by a Wieslab complement system classical pathway kit (Svar Life Science, Malmo, Sweden). Briefly, diluted human serum was preincubated with the reagent diluent containing 0.3% DMSO or a range of concentrations of C1s inhibitors for 10 min at room temperature. Then, the preincubated serum was added to each well, and the plate was incubated for 30 min at 37 ° C with a lid. The plate was then washed three times, and subsequent processes were conducted by following the manufacturer’s instructions. Lastly, the absorbance was measured with a Multiskan microplate photometer (Thermo Fisher Scientific, MA, USA), and the levels of complement activation were calculated based on the standard curve generated with calibrators with serially diluted human serum. The samples with serum treatment were set as 100%, and the activities of the negative control (NC) without the addition of serum were set as 0%.

T4 sequence (P00747 581-810 limits assumed): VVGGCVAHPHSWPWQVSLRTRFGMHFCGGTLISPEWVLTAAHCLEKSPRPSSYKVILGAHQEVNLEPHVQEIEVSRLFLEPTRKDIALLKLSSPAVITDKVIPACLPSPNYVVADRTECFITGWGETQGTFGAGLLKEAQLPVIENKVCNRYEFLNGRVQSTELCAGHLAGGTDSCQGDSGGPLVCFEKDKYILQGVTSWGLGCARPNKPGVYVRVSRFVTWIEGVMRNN

As usually defined, the IC50 is the concentration that inhibits the measured activity by half. Higher therefore signals a need for much substance. Regarding `Cc1cc([C@H]2CN(c3cc(F)c4c(N)nncc4c3)CCN2c2cccc(F)c2)no1` [Compound (R)-8, 8-Fluoro-6-[(3R)-4-(3-fluorophenyl)-3-(5-methyl-1,2-oxazol-3-yl)piperazin-1-yl]phthalazin-1-amine], the IC50 in assay [1] was 0.061 µM; in assay [2], over 30 µM; in assay [3], over 30 µM; in assay [4], over 30 µM. Further, the “Inhibition of MAC formation induced by human serum” value in assay [5] is “significantly inhibited”.
